*1 amine or outer side, *2 acyl side, *3 side chain or, on linkers, in order; H or OH if unused. Where a SMILES comes first, the peptide text is derived from it. Side-chain parts run from the residue outwards. [ ]: non-standard residue; d: D form. The star is where a group is joined. C20 diacid = O=C(O)CCCCCCCCCCCCCCCCCCC(=O)*; C18 diacid = O=C(O)CCCCCCCCCCCCCCCCC(=O)*; αMePhe(2-F) = C[C@](N)(Cc1ccccc1F)C(=O)O; γGlu = O=C(O)[C@H](CCC(=O)[*:2])N[*:1]; 4Pal = N[C@@H](Cc1ccncc1)C(=O)O; αMeL = CC(C)C[C@](C)(N)C(=O)O; Orn = NCCC[C@H](N)C(=O)O; AEEA = NCCOCCOCC(=O)O; Aib = CC(C)(N)C(=O)O
Assays:
Assay in all cases: cAMP functional assay (HTRF) in HEK293 cells in presence of 0.1% casein
Format in all cases: cell-based
[1] = biological target: T1, human GLP-1 receptor (GLP-1R) (Homo sapiens, UniProt P43220); details: HEK293 cells expressing human GLP-1R, geometric mean, read-out: hGLP1R cAMP Rel EC50 nM (SEM, n)
T1 construct: expressed in transfected cells; host or cells: HEK293

[2] = biological target: T2, human glucagon receptor (GcgR) (Homo sapiens, UniProt P47871); details: HEK293 cells expressing human GcgR, geometric mean, read-out: hGcgR cAMP Rel EC50 nM (SEM, n)
T2 construct: expressed in transfected cells; host or cells: HEK293

[3] = biological target: T3, human glucose-dependent insulinotropic peptide receptor (GIPR) (Homo sapiens, UniProt P48546); details: HEK293 cells expressing human GIPR, geometric mean, read-out: hGIPR cAMP Rel EC50 nM (SEM, n)
T3 construct: expressed in transfected cells; host or cells: HEK293
T3 sequence (P48546 22-466): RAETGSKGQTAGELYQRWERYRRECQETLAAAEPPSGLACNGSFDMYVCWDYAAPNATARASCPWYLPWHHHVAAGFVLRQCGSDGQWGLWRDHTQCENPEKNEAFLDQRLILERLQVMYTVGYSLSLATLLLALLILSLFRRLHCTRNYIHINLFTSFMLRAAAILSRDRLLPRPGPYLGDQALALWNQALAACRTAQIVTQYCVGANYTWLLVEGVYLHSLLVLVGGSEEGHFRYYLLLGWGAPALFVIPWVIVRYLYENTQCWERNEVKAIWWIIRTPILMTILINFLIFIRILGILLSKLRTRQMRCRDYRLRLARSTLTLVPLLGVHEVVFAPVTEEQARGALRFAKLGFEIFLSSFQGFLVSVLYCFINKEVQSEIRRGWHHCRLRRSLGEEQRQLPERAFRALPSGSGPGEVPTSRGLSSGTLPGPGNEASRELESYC

T2 sequence (P47871 26-477): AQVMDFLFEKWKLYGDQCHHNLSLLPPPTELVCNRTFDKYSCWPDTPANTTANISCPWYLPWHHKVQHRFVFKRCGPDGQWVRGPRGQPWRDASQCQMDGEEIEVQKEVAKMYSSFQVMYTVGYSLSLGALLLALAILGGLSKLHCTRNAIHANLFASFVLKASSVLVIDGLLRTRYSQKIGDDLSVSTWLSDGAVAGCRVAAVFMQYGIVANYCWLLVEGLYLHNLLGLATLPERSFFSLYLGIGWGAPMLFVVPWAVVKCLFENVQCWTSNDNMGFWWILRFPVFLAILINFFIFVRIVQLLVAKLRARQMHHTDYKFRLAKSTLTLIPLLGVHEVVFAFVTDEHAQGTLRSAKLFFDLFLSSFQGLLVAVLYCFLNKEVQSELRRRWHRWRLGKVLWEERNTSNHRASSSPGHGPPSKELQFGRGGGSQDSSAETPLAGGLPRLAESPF
T1 sequence (P43220 24-463): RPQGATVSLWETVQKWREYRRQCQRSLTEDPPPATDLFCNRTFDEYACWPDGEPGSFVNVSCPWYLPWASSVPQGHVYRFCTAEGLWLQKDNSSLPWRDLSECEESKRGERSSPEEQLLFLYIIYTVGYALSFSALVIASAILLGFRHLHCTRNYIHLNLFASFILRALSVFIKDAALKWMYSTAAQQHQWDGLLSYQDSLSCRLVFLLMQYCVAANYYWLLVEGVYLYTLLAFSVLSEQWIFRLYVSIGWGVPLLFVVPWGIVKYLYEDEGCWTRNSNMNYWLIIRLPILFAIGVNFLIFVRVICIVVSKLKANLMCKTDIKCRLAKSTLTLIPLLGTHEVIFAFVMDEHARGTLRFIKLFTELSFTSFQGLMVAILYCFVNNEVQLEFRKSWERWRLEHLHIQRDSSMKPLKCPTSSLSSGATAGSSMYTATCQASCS

Compound	EC50 [1] [nM]	EC50 [2] [nM]	EC50 [3] [nM]
CC[C@H](C)[C@H](NC(=O)[C@H](CO)NC(=O)[C@H](Cc1ccc(O)cc1)NC(=O)[C@H](CC(=O)O)NC(=O)[C@H](CO)NC(=O)[C@@H](NC(=O)[C@](C)(Cc1ccccc1F)NC(=O)[C@@H](NC(=O)CNC(=O)[C@H](CCC(=O)O)NC(=O)C(C)(C)NC(=O)[C@@H](N)Cc1ccc(O)cc1)[C@@H](C)O)[C@@H](C)CC)C(=O)N[C@@H](C)C(=O)N[C@@H](CC(C)C)C(=O)N[C@@H](CC(=O)O)C(=O)N[C@@H](CCCCN)C(=O)N[C@H](C(=O)N[C@@H](Cc1c[nH]cn1)C(=O)N[C@@H](CCC(N)=O)C(=O)NC(C)(C)C(=O)N[C@@H](CCC(=O)O)C(=O)N[C@@H](Cc1ccccc1)C(=O)N[C@H](C(=O)N[C@@H](CC(N)=O)C(=O)N[C@@H](Cc1ccc(O)cc1)C(=O)N[C@@H](CCCCNC(=O)COCCOCCNC(=O)COCCOCCNC(=O)CC[C@H](NC(=O)CCCCCCCCCCCCCCCCCCC(=O)O)C(=O)O)C(=O)N[C@@H](CC(C)C)C(=O)N[C@@H](CCC(=O)O)C(=O)NCC(=O)NCC(=O)N1CCC[C@H]1C(=O)N[C@@H](CO)C(=O)N[C@@H](CO)C(=O)NCC(=O)N[C@@H](C)C(=O)N1CCC[C@H]1C(=O)N1CCC[C@H]1C(=O)N1CCC[C@H]1C(=O)N[C@@H](CO)C(N)=O)C(C)C)[C@@H](C)CC [Example 95] (H-Y[Aib]EGT[αMePhe(2-F)]ISDYSIALDKIHQ[Aib]EFVNYK([AEEA-AEEA-γGlu-C20 diacid])LEGGPSSGAPPPS-NH2)	> 5000	> 5000	0.0272
CC[C@H](C)[C@H](NC(=O)[C@H](CO)NC(=O)[C@H](Cc1ccc(O)cc1)NC(=O)[C@H](CC(=O)O)NC(=O)[C@H](CO)NC(=O)[C@@H](NC(=O)[C@H](Cc1ccccc1)NC(=O)[C@@H](NC(=O)CNC(=O)[C@H](CCC(=O)O)NC(=O)[C@@H](C)NC(=O)[C@@H](N)Cc1ccc(O)cc1)[C@@H](C)O)[C@@H](C)CC)C(=O)N[C@@H](CC(C)C)C(=O)N[C@@H](CC(C)C)C(=O)N[C@@H](CC(=O)O)C(=O)N[C@@H](CCCCN)C(=O)N[C@@H](CCCCNC(=O)COCCOCCNC(=O)COCCOCCNC(=O)CC[C@H](NC(=O)CCCCCCCCCCCCCCCCC(=O)O)C(=O)O)C(=O)N[C@@H](C)C(=O)N[C@@H](CCC(N)=O)C(=O)NC(C)(C)C(=O)N[C@@H](CC(=O)O)C(=O)N[C@@H](Cc1ccccc1)C(=O)N[C@H](C(=O)N[C@@H](CC(N)=O)C(=O)N[C@@H](Cc1c[nH]c2ccccc12)C(=O)N[C@@H](CC(C)C)C(=O)N[C@@H](CC(C)C)C(=O)N[C@@H](C)C(=O)NCC(=O)NCC(=O)N1CCC[C@H]1C(=O)N[C@@H](CO)C(=O)N[C@@H](CO)C(=O)NCC(=O)N[C@@H](C)C(=O)N1CCC[C@H]1C(=O)N1CCC[C@H]1C(=O)N1CCC[C@H]1C(=O)N[C@@H](CO)C(N)=O)C(C)C [Example 19] (H-Y[dA]EGTFISDYSILLDKK([AEEA-AEEA-γGlu-C18 diacid])AQ[Aib]DFVNWLLAGGPSSGAPPPS-NH2)	> 5000	> 5000	0.00992
CC[C@H](C)[C@H](NC(=O)[C@H](Cc1ccccc1)NC(=O)[C@@H](NC(=O)CNC(=O)[C@H](CCC(=O)O)NC(=O)C(C)(C)NC(=O)[C@@H](N)Cc1ccc(O)cc1)[C@@H](C)O)C(=O)N[C@@H](CO)C(=O)N[C@@H](CC(=O)O)C(=O)N[C@@H](Cc1ccc(O)cc1)C(=O)N[C@@H](CO)C(=O)N[C@H](C(=O)N[C@@](C)(CC(C)C)C(=O)N[C@@H](CC(C)C)C(=O)N[C@@H](CC(=O)O)C(=O)N[C@@H](CCCCN)C(=O)N[C@@H](CCCCNC(=O)COCCOCCNC(=O)COCCOCCNC(=O)CC[C@H](NC(=O)CCCCCCCCCCCCCCCCCCC(=O)O)C(=O)O)C(=O)N[C@@H](Cc1c[nH]cn1)C(=O)N[C@@H](CCC(N)=O)C(=O)NC(C)(C)C(=O)N[C@@H](CC(=O)O)C(=O)N[C@@H](Cc1ccccc1)C(=O)N[C@H](C(=O)N[C@@H](CCC(=O)O)C(=O)N[C@@H](Cc1ccncc1)C(=O)N[C@@H](CC(C)C)C(=O)N[C@@H](CC(C)C)C(=O)N[C@@H](CCC(=O)O)C(=O)N[C@@H](C)C(=O)NCC(=O)N1CCC[C@H]1C(=O)N[C@@H](CO)C(=O)N[C@@H](CO)C(=O)NCC(=O)N[C@@H](C)C(=O)N1CCC[C@H]1C(=O)N1CCC[C@H]1C(=O)N1CCC[C@H]1C(=O)N[C@@H](CO)C(N)=O)C(C)C)[C@@H](C)CC [Example 3]	> 5000	1250	0.0178
CC[C@H](C)[C@H](NC(=O)[C@H](Cc1ccccc1)NC(=O)[C@@H](NC(=O)CNC(=O)[C@H](CCC(=O)O)NC(=O)C(C)(C)NC(=O)[C@@H](N)Cc1ccc(O)cc1)[C@@H](C)O)C(=O)N[C@@H](CO)C(=O)N[C@@H](CC(=O)O)C(=O)N[C@@H](Cc1ccc(O)cc1)C(=O)N[C@@H](CO)C(=O)N[C@H](C(=O)N[C@@](C)(CC(C)C)C(=O)N[C@@H](CC(C)C)C(=O)N[C@@H](CC(=O)O)C(=O)N[C@@H](CCCN)C(=O)N[C@@H](CCCCNC(=O)COCCOCCNC(=O)COCCOCCNC(=O)CC[C@H](NC(=O)CCCCCCCCCCCCCCCCC(=O)O)C(=O)O)C(=O)N[C@@H](Cc1c[nH]cn1)C(=O)N[C@@H](CCC(N)=O)C(=O)NC(C)(C)C(=O)N[C@@H](CC(=O)O)C(=O)N[C@@H](Cc1ccccc1)C(=O)N[C@H](C(=O)N[C@@H](CCC(=O)O)C(=O)N[C@@H](Cc1ccncc1)C(=O)N[C@@H](CC(C)C)C(=O)N[C@@H](CC(C)C)C(=O)N[C@@H](CCC(=O)O)C(=O)N[C@@H](C)C(=O)NCC(=O)N1CCC[C@H]1C(=O)N[C@@H](CO)C(=O)N[C@@H](CO)C(=O)NCC(=O)N[C@@H](C)C(=O)N1CCC[C@H]1C(=O)N1CCC[C@H]1C(=O)N1CCC[C@H]1C(=O)N[C@@H](CO)C(N)=O)C(C)C)[C@@H](C)CC [Example 87] (H-Y[Aib]EGTFISDYSI[αMeL]LD[Orn]K([AEEA-AEEA-γGlu-C18 diacid])HQ[Aib]DFVE[4Pal]LLEAGPSSGAPPPS-NH2)	> 5000	> 5000	0.0107
CC[C@H](C)[C@H](NC(=O)[C@H](CO)NC(=O)[C@H](Cc1ccc(O)cc1)NC(=O)[C@H](CC(=O)O)NC(=O)[C@H](CO)NC(=O)[C@@H](NC(=O)[C@H](Cc1ccccc1)NC(=O)[C@@H](NC(=O)CNC(=O)[C@H](CCC(=O)O)NC(=O)[C@@H](C)NC(=O)[C@@H](N)Cc1ccc(O)cc1)[C@@H](C)O)[C@@H](C)CC)C(=O)N[C@@H](CC(C)C)C(=O)N[C@@H](CC(C)C)C(=O)N[C@@H](CC(=O)O)C(=O)N[C@@H](CCCCN)C(=O)N[C@@H](CCCCNC(=O)COCCOCCNC(=O)COCCOCCNC(=O)CC[C@H](NC(=O)CCCCCCCCCCCCCCCCC(=O)O)C(=O)O)C(=O)N[C@@H](C)C(=O)N[C@@H](CCC(N)=O)C(=O)NC(C)(C)C(=O)N[C@@H](CC(=O)O)C(=O)N[C@@H](Cc1ccccc1)C(=O)N[C@H](C(=O)N[C@@H](CCC(=O)O)C(=O)N[C@@H](Cc1c[nH]c2ccccc12)C(=O)N[C@@H](CC(C)C)C(=O)N[C@@H](CC(C)C)C(=O)N[C@@H](C)C(=O)N[C@@H](CCC(N)=O)C(=O)NCC(=O)N1CCC[C@H]1C(=O)N[C@@H](CO)C(=O)N[C@@H](CO)C(=O)NCC(=O)N[C@@H](C)C(=O)N1CCC[C@H]1C(=O)N1CCC[C@H]1C(=O)N1CCC[C@H]1C(=O)N[C@@H](CO)C(N)=O)C(C)C [Example 16] (H-Y[dA]EGTFISDYSILLDKK([AEEA-AEEA-γGlu-C18 diacid])AQ[Aib]DFVEWLLAQGPSSGAPPPS-NH2)	> 5000	> 5000	0.00937

Source: patent US12723063B2, “GIPR-agonist compounds” (Eli Lilly and Company, priority 2019, dated 2026)
